Experimental findings from patent US8968709B2, “Therapeutic dental composition and related methods” (3M Innovative Properties Company, priority 2007, dated 2015) are described below.

Holding throughout (format): cell-based
For assay [1], the system named is Streptococcus mutans (ATCC 25175) biofilm. Kind of assay: Quantitative Biofilm Inhibition Test. The following applies: average optical density at 550 nm as percentage of control; 1 weight percent compound, 1.0 weight percent sucrose in brain heart infusion broth, 37° C., approximately twenty hours, five discs. The method, then:
Compounds of the dental compositions of the invention, and comparative compounds, were evaluated for biofilm inhibition activity. Composite dental restorative (available under the trade designation “FILTEK SUPREME” from 3M ESPE Dental Products, St. Paul, Minn.) was placed in a 15 millimeter by 1 millimeter stainless steel die. The open ends of the die were then covered with polyester film and the die was subjected to a pressure of 68.95 MPa using a hydraulic press. While the die containing the composite restorative was under compression, the composite was irradiated for two minutes using a Model ACE light source (available from SCHOTT North America, Inc., Auburn, N.Y.). The discs of cured composite restorative were then further cured using a Model UniXS light box (available from Heraeus Kulzer, Inc., Armonk, N.Y.) for 1.5 minutes.
The cured discs of composite restorative were then immersed in ten milliliters of Streptococcus mutans culture (ATCC 25175; 10^6 CFU/mL) prepared in brain heart infusion broth that contained 1.0 weight percent sucrose and 1 weight percent of a compound of the dental composition. The samples were incubated at 37° C. for approximately twenty hours, after which time the cured discs were removed from the broth and were gently rinsed with water. Each disc was placed in a separate test tube containing five milliliters of 1M aqueous sodium hydroxide solution, and each test tube was then sonicated for two minutes using a model SH1012-40-8 ultrasonic generator (manufactured by Branson Ultrasonics Corp., Danbury, Conn.) for two minutes to dislodge biofilm on the disc. The optical absorbance (optical density) of each aqueous sodium hydroxide solution was then measured at 550 nm using a Model ULTROSPEC III UV-visible spectrophotometer (manufactured by Pharmacia AB, Uppsala, Sweden). For each compound of the dental composition, five discs were separately incubated in broth and were evaluated separately to provide five optical density measurements. The average of the five optical density measurements was then calculated. […] The average optical density of the control or comparative samples was determined as described above. The ratio, expressed as a percentage, of the average optical density for each compound sample to the average optical density for a control sample was calculated by dividing the average optical density for each compound sample by the average optical density for a control sample and multiplying the result by one hundred. The ratio was considered to be proportional to the average amount of biofilm on the five cured discs, i.e., relatively low average optical density ratio was considered to be indicative of inhibition of biofilm formation. The ratio for the control was 100%.
(§1) The Biofilm Inhibition Test was carried out using compounds of the dental composition. […] In addition, a qualitative determination of biofilm formation was made for each Example and the Comparative Example in which each disc was visually examined before it was placed in the tube containing the aqueous sodium hydroxide solution.

For assay [2] the test system is unchanged. Kind of assay: Qualitative Biofilm Inhibition Test (visual examination of discs). On the set-up: key: +: a visual assessment that a compound inhibited biofilm formation; −: a visual assessment that either a compound did not inhibit biofilm formation, or that bacteria grew in the culture broth. The following applies: visible biofilm on cured composite disc after incubation and water rinse; 1 weight percent compound, 1.0 weight percent sucrose. How it is done: as §1, with “During the procedure for the Quantitative Biofilm Inhibition Test, each cured disc was visually examined after it was removed from the broth (and rinsed with water) and before it was placed in a test tube containing five milliliters of 1M aqueous sodium hydroxide solution. The presence or absence of visible biofilm on a disc was noted. The” for “The”

Assay [3] relates to Streptococcus mutans (strain ATCC 25175). Kind of assay: Minimum Inhibitory Concentration (MIC) Test, S. mutans. The following applies: 37° C., 24 hours, "none" = no inhibitory activity detected. The method, then:
(§2) The MIC Test was carried out using successively lower concentrations of compounds. Sterile tryptic soy broth (50 microliters; TSB, available from BD Dfico, Becton, Dickinson and Company, Franklin Lakes, N.J.) was deposited into each well of a sterile polystyrene 96-well microtiter plate. Into each well in the first (leftmost) column of the plate, there was then deposited a 50 microliter aliquot (of known concentration) of a compound (I.e., a compound of Formula I, or a pharmaceutically acceptable salt thereof, or comparative compound). A 50 microliter aliquot of the mixture in the first (leftmost) well in the first row of the plate was transferred to the second well in the first row. A 50 microliter aliquot of the mixture in the second well in the first row was then transferred to the third well in the first row. The compound was successively diluted (1:1 dilution at each step) by transferring a 50 microliter aliquot from one well into the next well, across the row of the plate. This procedure was repeated for each row of the plate. Then, an overnight culture of Streptococcus mutans (strain ATCC 25175) was diluted 1:100 into sterile tryptic soy broth. A 50 microliter aliquot of the diluted S. mutans culture (10^5 CFU) was deposited into each well of the microtiter plate. The plate was then incubated at 37° C. for 24 hours in a sealed humidified chamber. The plate was then visually inspected to determine the lowest concentration of compound at which no bacterial growth was visible. This value was considered to be the minimum inhibitory concentration (MTC) for the compound. The test was repeated using Staphylococcus aureus (strain ATCC 6538) and Pseudomonas aeruginosa (strain ATCC 9027) in place of S. mutans. A sample of each of the compounds of Formulae II, III, IV, V, and VI (0.050 g each) was dissolved in water (5 g). Each of the samples was evaluated using the Minimum Inhibitory Concentration (MIC) Test described above with S. mutans, S. aureus, and P. aeruginosa. In Table 3, “none” means that no inhibitory activity was detected.

In assay [4] the test system is Staphylococcus aureus (strain ATCC 6538). As to the kind of experiment: Minimum Inhibitory Concentration (MIC) Test, S. aureus. The following applies: tryptic soy broth, 37° C., 24 hours, "none" = no inhibitory activity detected. How it is done: as §2
In assay [5] the test system is Pseudomonas aeruginosa (strain ATCC 9027). Kind of assay: Minimum Inhibitory Concentration (MIC) Test, P. aeruginosa. The following applies: 37° C., 24 hours, "none" = no inhibitory activity detected. The method, then: as §2
In assay [6] the test system is Streptococcus mutans (ATCC 25175) biofilm. Kind of assay: Biofilm Inhibition Test: concentration of compound to inhibit biofilm formation at varied sucrose.
[7] abbreviates: Streptococcus mutans, ATCC25175, tryptic soy broth, read-out: MIC.

≈ marks a conversion by molar mass, not a printed value. Read-outs that look alike come from different tables or passages of the source.

As for `NC[C@H](O)[C@@H](O)[C@H](O)[C@H](O)CO` [D-Glucamine, D-glucamine], in assay [1], the “OD Ratio” value stood at 101.5%. In assay [2], the “Visual Assessment” value was “+”. Further, the MIC entry in assay [3] (tryptic soy broth), in assay [4] and in assay [5] (tryptic soy broth) was “none” each time.
`CNC[C@H](O)[C@@H](O)[C@H](O)[C@H](O)CO` [N-Methyl-D-glucamine, N-methyl-D-glucamine]: in assay [1], the “OD Ratio” value was found to be 0%. Also, the “Visual Assessment” value in assay [2] is on record as “+”. Moreover, the “Concentration of Compound to Inhibit Biofilm Formation” value in assay [6] (1 wt % Sucrose), in assay [6] (2.5 wt % Sucrose) and in assay [6] (5 wt % Sucrose) was 50 mM throughout. Also, the MIC entry in assay [3] (tryptic soy broth), in assay [4] and in assay [5] (tryptic soy broth) was “none” each time.
Take `CCCCCCCCCC(=O)N(C)C[C@H](O)[C@@H](O)[C@H](O)[C@H](O)CO` [N-Methyl-N-decanoyl-D-glucamine, N-methyl-N-decanoyl-D-glucamine]: in assay [1], the “OD Ratio” value is 0%. The “Visual Assessment” value in assay [2] was “+”. Also, the MIC amounted to 1250 µg/mL (≈ 3.58 mM) in assay [3] (setting [7]); 2.50 in assay [4]; 2500 µg/mL (≈ 7.15 mM) in assay [5] (Pseudomonas aeruginosa, ATCC9027, tryptic soy broth, read-out: MIC).
In the case of `CCCCCCCCC(=O)N(C)C[C@H](O)[C@@H](O)[C@H](O)[C@H](O)CO` [N-Methyl-N-nonanoyl-D-glucamine, N-methyl-N-nonanoyl-D-glucamine], in assay [1], the “OD Ratio” value amounted to 0%. In addition, in assay [2], the “Visual Assessment” value is recorded as “+”. In addition, the MIC in assay [3] (setting [7]) was 2500 µg/mL (≈ 7.45 mM); in assay [4], “none”; in assay [5] (tryptic soy broth) it was “none”.
As for `CCCCCCCC(=O)N(C)C[C@H](O)[C@@H](O)[C@H](O)[C@H](O)CO` [N-Methyl-N-octanoyl-D-glucamine, N-methyl-N-octanoyl-D-glucamine], the “OD Ratio” value in assay [1] is reported as 0%. Further, the “Visual Assessment” value in assay [2] is on record as “+”. The MIC result in assay [3] (tryptic soy broth), in assay [4] and in assay [5] (tryptic soy broth) was “none” throughout.
